Where two headings read alike, the source gives them in different places.
Assay: Noncompartmental pharmacokinetic parameters (Cmax, Tmax, AUC, Racc) in QD and BID cohorts of Form B
Format: in vivo, human
Settings: human, plasma, oral
Experimental: Analysis of plasma concentration versus time data for calculation of standard pharmacokinetic (PK) parameters following oral administration was conducted using Phoenix WinNonlin version 6.3 using actual blood sampling times.
The following pharmacokinetic parameters were calculated from the concentration versus time data obtained in Example 1 for each of the above QD (200 mg, 300 mg, 400 mg, 500 mg, or 650 mg dosed) and BID (100 mg, 150 mg, or 200 mg doses) Form B of Compound II dosage cohorts: • Cmax—the observed peak plasma concentration determined from the plasma concentration versus time data obtained on Day 1 and Day 29, as applicable; • Tmax—the time to reach the observed peak plasma concentration from the plasma concentration versus time data obtained on Day 1 and Day 29, as applicable; • AUC—area under the plasma concentration versus time curve during a dosing interval on Day 1 and Day 29, as applicable; and • Racc—accumulation ratio calculated as AUCDay 29/AUCDay 1.

Which AUC(0-t) (100 mg, Cohort 6, 100 mg BID of Form B, Day 1, read-out: AUClast, Mean) does the source give for `CC(C)N1CCN(c2ccc(Nc3ncc4cc5n(c4n3)C3(CCCCC3)CNC5=O)nc2)CC1` [Compound I, 2′-((5-(4-isopropylpiperazin-1-yl)pyridin-2-yl)amino)-7′,8′-dihydro-6′H-spiro[cyclohexane-1,9′-pyrazino[1′,2′:1,5]pyrrolo[2,3-d]pyrimidin]-6′-one] here?
Its AUC(0-t) is 59.7 ng·h/mL.

And the AUC(0-t) (100 mg, Cohort 6, 100 mg BID of Form B, Day 1, read-out: AUClast, Median)?
The AUC(0-t) was 53.1 ng·h/mL.

And the Cmax (100 mg, Cohort 6, 100 mg BID of Form B, Day 1, read-out: Cmax, Mean)?
The Cmax was 10.2 ng/mL.

And the Cmax (100 mg, Cohort 6, 100 mg BID of Form B, Day 1, read-out: Cmax, Median)?
The Cmax was 8.95 ng/mL.

And the Tmax (100 mg, Cohort 6, 100 mg BID of Form B, Day 1, read-out: Tmax, Mean)?
Its Tmax is 3.17 h.

And the Tmax (100 mg, Cohort 6, 100 mg BID of Form B, Day 1, read-out: Tmax, Median)?
Its Tmax is 3 h.

And the AUC(0-t) (100 mg, Compound I, 100 mg BID of Form B, Cohort 6, Day 29, read-out: AUClast (Mean))?
Its AUC(0-t) is 101 ng·h/mL.

What about the AUC(0-t) (100 mg, Compound I, 100 mg BID of Form B, Cohort 6, Day 29, read-out: AUClast (Median)) of the same compound?
Its AUC(0-t) is 88.2 ng·h/mL.

And the Cmax (100 mg, Compound I, 100 mg BID of Form B, Cohort 6, Day 29, read-out: Cmax (Mean))?
Its Cmax is 12.3 ng/mL.

And the Cmax (100 mg, Compound I, 100 mg BID of Form B, Cohort 6, Day 29, read-out: Cmax (Median))?
Its Cmax is 11.8 ng/mL.

And the Tmax (100 mg, Compound I, 100 mg BID of Form B, Cohort 6, Day 29, read-out: Tmax (Mean))?
The Tmax was 4.4 h.

And the Tmax (100 mg, Compound I, 100 mg BID of Form B, Cohort 6, Day 29, read-out: Tmax (Median))?
The Tmax was 3 h.

And the AUC(0-t) (150 mg, Compound I, 150 mg BID of Form B, Cohort 7, Day 1, read-out: AUClast (Mean))?
The AUC(0-t) was 130 ng·h/mL.

What about the AUC(0-t) (150 mg, Compound I, 150 mg BID of Form B, Cohort 7, Day 1, read-out: AUClast (Median)) of the same compound?
The AUC(0-t) was 141 ng·h/mL.

And the Cmax (150 mg, Compound I, 150 mg BID of Form B, Cohort 7, Day 1, read-out: Cmax (Mean))?
Its Cmax is 21.7 ng/mL.

What about the Cmax (150 mg, Compound I, 150 mg BID of Form B, Cohort 7, Day 1, read-out: Cmax (Median)) of the same compound?
Its Cmax is 24.6 ng/mL.

And the Tmax (150 mg, Compound I, 150 mg BID of Form B, Cohort 7, Day 1, read-out: Tmax (Mean))?
Its Tmax is 3.67 h.

What about the Tmax (150 mg, Compound I, 150 mg BID of Form B, Cohort 7, Day 1, read-out: Tmax (Median)) of the same compound?
The Tmax was 4 h.

What about the AUC(0-t) (150 mg, Compound I, 150 mg BID of Form B, Cohort 7, Day 29, read-out: AUClast (Mean)) of the same compound?
The AUC(0-t) was 455 ng·h/mL.

And the AUC(0-t) (150 mg, Compound I, 150 mg BID of Form B, Cohort 7, Day 29, read-out: AUClast (Median))?
Its AUC(0-t) is 334 ng·h/mL.

And the Cmax (150 mg, Compound I, 150 mg BID of Form B, Cohort 7, Day 29, read-out: Cmax (Mean))?
The Cmax was 50.2 ng/mL.

What about the Cmax (150 mg, Compound I, 150 mg BID of Form B, Cohort 7, Day 29, read-out: Cmax (Median)) of the same compound?
The Cmax was 36.9 ng/mL.

And the Tmax (150 mg, Compound I, 150 mg BID of Form B, Cohort 7, Day 29, read-out: Tmax (Mean))?
Its Tmax is 4 h.

What about the Tmax (150 mg, Compound I, 150 mg BID of Form B, Cohort 7, Day 29, read-out: Tmax (Median)) of the same compound?
The Tmax was 4 h.

What about the AUC(0-t) (200 mg, Cohort 1, 200 mg QD of Form B, Day 1, read-out: AUClast, Mean) of the same compound?
Its AUC(0-t) is 215 ng·h/mL.

What about the AUC(0-t) (200 mg, Cohort 1, 200 mg QD of Form B, Day 1, read-out: AUClast, Median) of the same compound?
Its AUC(0-t) is 232 ng·h/mL.

What about the Cmax (200 mg, Cohort 1, 200 mg QD of Form B, Day 1, read-out: Cmax, Mean) of the same compound?
The Cmax was 25.5 ng/mL.

And the Cmax (200 mg, Cohort 1, 200 mg QD of Form B, Day 1, read-out: Cmax, Median)?
Its Cmax is 27 ng/mL.

What about the Tmax (200 mg, Cohort 1, 200 mg QD of Form B, Day 1, read-out: Tmax, Mean) of the same compound?
Its Tmax is 4.17 h.

What about the Tmax (200 mg, Cohort 1, 200 mg QD of Form B, Day 1, read-out: Tmax, Median) of the same compound?
Its Tmax is 4 h.

And the AUC(0-t) (200 mg, Compound I, 200 mg BID of Form B, Cohort 7, Day 1, read-out: AUClast (Mean))?
The AUC(0-t) was 118 ng·h/mL.

What about the AUC(0-t) (200 mg, Compound I, 200 mg BID of Form B, Cohort 7, Day 1, read-out: AUClast (Median)) of the same compound?
Its AUC(0-t) is 125 ng·h/mL.

And the Cmax (200 mg, Compound I, 200 mg BID of Form B, Cohort 7, Day 1, read-out: Cmax (Mean))?
Its Cmax is 17.3 ng/mL.

What about the Cmax (200 mg, Compound I, 200 mg BID of Form B, Cohort 7, Day 1, read-out: Cmax (Median)) of the same compound?
The Cmax was 17.6 ng/mL.

And the Tmax (200 mg, Compound I, 200 mg BID of Form B, Cohort 7, Day 1, read-out: Tmax (Mean))?
Its Tmax is 5 h.

And the Tmax (200 mg, Compound I, 200 mg BID of Form B, Cohort 7, Day 1, read-out: Tmax (Median))?
The Tmax was 5 h.

What about the AUC(0-t) (200 mg, Compound I, 200 mg BID of Form B, Cohort 8, Day 29, read-out: AUClast (Mean)) of the same compound?
Its AUC(0-t) is 197 ng·h/mL.

And the AUC(0-t) (200 mg, Compound I, 200 mg BID of Form B, Cohort 8, Day 29, read-out: AUClast (Median))?
The AUC(0-t) was 205 ng·h/mL.

What about the Cmax (200 mg, Compound I, 200 mg BID of Form B, Cohort 8, Day 29, read-out: Cmax (Mean)) of the same compound?
Its Cmax is 26.3 ng/mL.

What about the Cmax (200 mg, Compound I, 200 mg BID of Form B, Cohort 8, Day 29, read-out: Cmax (Median)) of the same compound?
The Cmax was 30.5 ng/mL.

And the Tmax (200 mg, Compound I, 200 mg BID of Form B, Cohort 8, Day 29, read-out: Tmax (Mean))?
Its Tmax is 6.67 h.

And the Tmax (200 mg, Compound I, 200 mg BID of Form B, Cohort 8, Day 29, read-out: Tmax (Median))?
Its Tmax is 4 h.

And the AUC(0-t) (200 mg, Compound I, 200 mg QD of Form B, Cohort 1, Day 29, read-out: AUClast (Mean))?
The AUC(0-t) was 229 ng·h/mL.

What about the AUC(0-t) (200 mg, Compound I, 200 mg QD of Form B, Cohort 1, Day 29, read-out: AUClast (Median)) of the same compound?
The AUC(0-t) was 227 ng·h/mL.

What about the Cmax (200 mg, Compound I, 200 mg QD of Form B, Cohort 1, Day 29, read-out: Cmax (Mean)) of the same compound?
The Cmax was 20.4 ng/mL.

And the Cmax (200 mg, Compound I, 200 mg QD of Form B, Cohort 1, Day 29, read-out: Cmax (Median))?
The Cmax was 21.3 ng/mL.

What about the Tmax (200 mg, Compound I, 200 mg QD of Form B, Cohort 1, Day 29, read-out: Tmax (Mean)) of the same compound?
The Tmax was 4.2 h.

And the Tmax (200 mg, Compound I, 200 mg QD of Form B, Cohort 1, Day 29, read-out: Tmax (Median))?
Its Tmax is 4 h.

And the AUC(0-t) (300 mg, Cohort 2, 300 mg QD of Form B, Day 1, upon exclusion of data for patient that vomited immediately after dosing, read-out: AUClast, Mean)?
Its AUC(0-t) is 567 ng·h/mL.
